Residues, ends and D or L forms follow the SMILES beside them.
Columns and labels:
Type in all cases: cell-based
HIV-1 LAI A6V = conditions: T2635-resistant A6V; p24 ELISA; mean ± SD of three independent experiments
Protocol: (§1) Inhibitory activities of peptides on infection by HIV-1 X4 strain IIIB, R5 strain Bal, and T20-, T2635-, HP23-resistant strains were determined as previously described [42]. For each well of a 96-well plate, 50 μL of a peptide were mixed with 50 μL of 100 × TCID50 (50% tissue culture infective doses) of HIV-1 live virus and incubated at 37 °C for 30 min. Afterwards, 2 × 10^4 MT-2 (for X4 virus) or CEMx174 5.25 M7 cells (for R5 virus) were added. After overnight culture, the supernatant was replaced with fresh RPMI-1640 medium containing 10% fetal bovine serum (FBS). After further culture at 37 °C for three days, 50 μL of the culture medium were collected and mixed with equal volume of 5% (v/v) Triton X-100. The p24 antigen, which represents HIV-1 quantity, was detected by ELISA. Briefly, the collected mixtures were added to a plate coated with anti-HIV Immune Globulin (HIVIG) from the NIH AIDS Reagent Program. Anti-p24 mAb 183, rabbit anti-mouse IgG-HRP (Dako, Glostrup, Denmark) and substrate 3,3,5,5-TMB (Sigma-Aldrich, New York, NY) were added and washed away sequentially. The absorbance at 450 nm (A450) was determined by a Multi-Detection Microplate Reader (Ultra 384, Tecan, Tokyo, Japan). IC50s were calculated using Calcusyn software (Biosoft, Ferguson, MO), and the lines of best fit were drawn using GraphPad Prism 8 software (La Jolla, CA).

HIV-1 LAI Q79E/N126K = conditions: T2635-resistant Q79E/N126K; p24 ELISA; mean ± SD of three independent experiments
Protocol: as §1

HIV-1 NL4-3 E49K/N126K = conditions: HP23-resistant E49K/N126K; p24 ELISA; mean ± SD of three independent experiments
Protocol: as §1

HIV-1 NL4-3 E49K = conditions: HP23-resistant E49K; p24 ELISA; mean ± SD of three independent experiments
Protocol: as §1

HIV-1 LAI K90E/N126K = conditions: T2635-resistant K90E/N126K; p24 ELISA; mean ± SD of three independent experiments
Protocol: as §1

HIV-1 LAI Q66R = conditions: T2635-resistant Q66R; p24 ELISA; mean ± SD of three independent experiments
Protocol: as §1

[1] = tested on: HIV-1 NL4-3 (D36G) V38A, N42T; conditions: T20-resistant (D36G) V38A, p24 ELISA, mean ± SD of three independent experiments
Protocol: as §1

HIV-1 NL4-3 (D36G) V38A = conditions: T20-resistant (D36G) V38A; p24 ELISA; mean ± SD of three independent experiments
Protocol: (§2) For each well of a 96-well plate, 50 μL of a peptide were mixed with 50 μL of 100 × TCID50 (50% tissue culture infective doses) of HIV-1 live virus and incubated at 37 °C for 30 min. Afterwards, 2 × 10^4 MT-2 (for X4 virus) or CEMx174 5.25 M7 cells (for R5 virus) were added. After overnight culture, the supernatant was replaced with fresh RPMI-1640 medium containing 10% fetal bovine serum (FBS). After further culture at 37 °C for three days, 50 μL of the culture medium were collected and mixed with equal volume of 5% (v/v) Triton X-100. The p24 antigen, which represents HIV-1 quantity, was detected by ELISA. Briefly, the collected mixtures were added to a plate coated with anti-HIV Immune Globulin (HIVIG) from the NIH AIDS Reagent Program. Anti-p24 mAb 183, rabbit anti-mouse IgG-HRP (Dako, Glostrup, Denmark) and substrate 3,3,5,5-TMB (Sigma-Aldrich, New York, NY) were added and washed away sequentially. The absorbance at 450 nm (A450) was determined by a Multi-Detection Microplate Reader (Ultra 384, Tecan, Tokyo, Japan). IC50s were calculated using Calcusyn software (Biosoft, Ferguson, MO), and the lines of best fit were drawn using GraphPad Prism 8 software (La Jolla, CA).

HIV-1 NL4-3 (WT) = conditions: p24 ELISA, mean ± SD of three independent experiments
Protocol: as §1

[2] = tested on: HIV-1 NL4-3 D36G/E49K/N126K; conditions: HP23-resistant D36G/E49K/N126K; p24 ELISA; mean ± SD of three independent experiments
Protocol: as §1

HIV-1IIIB (X4 virus) = tested on: HIV-1IIIB (X4 virus)
Protocol: To determine whether a peptide binds with the target cells in order to execute its anti-HIV-1 activity, cell wash and nonwash assays were performed as previously described. Briefly, 2 × 10^4 MT-2 cells were incubated with a peptide at 4 °C for 30 min, followed by washes of the pretreated cells to remove the unbound peptide (control: without washes) before addition of HIV-1IIIB (100 × TCID50). After culture at 37 °C overnight, the supernatant was replaced by fresh RPMI-1640 medium containing 10% FBS. The inhibitory activity of the cell-bound peptide in the wash group and free peptide in the nonwash group was determined as described above.

[3] = tested on: HIV-1 NL4-3 (D36G) V38A, N42D; conditions: T20-resistant (D36G) V38A, p24 ELISA, mean ± SD of three independent experiments
Protocol: as §2

[4] = tested on: HIV-1 NL4-3 L34S/D36G/E49K/E136G; conditions: HP23-resistant L34S/D36G/E49K/E136G; p24 ELISA; mean ± SD of three independent experiments
Protocol: as §1

[5] = tested on: cell-cell fusion between H9/IIIB cells and MT-2 cells; test: HIV-1-mediated cell-cell fusion (dye transfer assay); conditions: Calcein AM dye transfer; peptide 37 °C 30 min, then MT-2 cells 2 h; read-out: IC50 against cell-cell fusion between H9/IIIB cells and MT-2 cells
Protocol: A dye transfer assay was performed to detect HIV-1 Env-mediated cell-cell fusion as described previously. Briefly, for each well of a 96-well plate, 2 × 10^3 H9/IIIB cells labeled with the fluorescent reagent Calcein AM (Molecular Probes, Inc., Eugene, Oregon) were incubated with a CHR-peptide at 37 °C for 30 min. Afterwards, 10^4 MT-2 cells were added and incubated at 37 °C for 2 h. The fused and unfused Calcein-labeled H9/IIIB cells were counted under an inverted fluorescence microscope (Zeiss, Oberkochen, Germany). The IC50 values were calculated by using the Calcusyn computer program (Biosoft, Ferguson, MO).

HIV-1 LAI K90E = conditions: T2635-resistant K90E; p24 ELISA; mean ± SD of three independent experiments
Protocol: as §1

HIV-1 LAI K154Q = conditions: T2635-resistant K154Q; p24 ELISA; mean ± SD of three independent experiments
Protocol: as §1

[6] = tested on: HIV-1 NL4-3 (D36G) V38E, N42S; conditions: T20-resistant (D36G) V38E, p24 ELISA, mean ± SD of three independent experiments
Protocol: as §1

[7] = tested on: HIV-1 NL4-3 (D36G) N42T, N43K; conditions: T20-resistant (D36G) N42T, p24 ELISA, mean ± SD of three independent experiments
Protocol: as §1

HIV-1 NL4-3 D36G (WT) = conditions: p24 ELISA, mean ± SD of three independent experiments
Protocol: as §1

HIV-1 LAI (WT) = conditions: p24 ELISA, mean ± SD of three independent experiments

With `CC[C@H](C)[C@H](NC(=O)[C@H](CCC(N)=O)NC(=O)[C@H](CCC(N)=O)NC(=O)[C@H](CC(N)=O)NC(=O)[C@H](CCC(N)=O)NC(=O)[C@H](CO)NC(=O)[C@H](CCCCN)NC(=O)[C@H](CCCCN)NC(=O)[C@H](CC(C)C)NC(=O)[C@@H](NC(=O)[C@H](CCC(=O)O)NC(=O)[C@H](CCC(=O)O)NC(=O)[C@@H](NC(=O)[C@H](CCCCN)NC(=O)[C@H](CCCCN)NC(=O)[C@@H](NC(=O)[C@H](Cc1ccc(O)cc1)NC(=O)[C@H](CCC(=O)O)NC(=O)[C@H](CCC(=O)O)NC(=O)[C@@H](NC(=O)[C@H](CCCCN)NC(=O)[C@H](CCCCN)NC(=O)[C@H](CCC(=O)O)NC(=O)[C@H](Cc1c[nH]c2ccccc12)NC(=O)[C@H](CCC(=O)O)NC(=O)[C@H](CCC(=O)O)NC(=O)[C@H](Cc1c[nH]c2ccccc12)NC(=O)[C@@H](NC(=O)[C@H](CCSC)NC(=O)[C@@H](N)CCC(=O)O)[C@@H](C)O)[C@@H](C)CC)[C@@H](C)O)[C@@H](C)CC)[C@@H](C)CC)C(=O)N[C@@H](CC(=O)O)C(=O)N[C@@H](CC(C)C)C(=O)O` [HP23-E6-IDL] (H-EMTWEEWEKKIEEYTKKIEEILKKSQNQQIDL-OH) as the molecule, how does the IC50 (HIV-1 LAI A6V) read?
Its IC50 is 0.349 ± 0.019 nM.

What about the IC50 (HIV-1 LAI Q79E/N126K) of the same molecule?
Its IC50 is 1.31 ± 0.059 nM.

And the IC50 (HIV-1 NL4-3 E49K/N126K)?
The IC50 was 2.56 ± 0.318 nM.

What about the IC50 (HIV-1 NL4-3 E49K) of the same molecule?
The IC50 was 2.04 ± 0.126 nM.

What about the IC50 (HIV-1 LAI K90E/N126K) of the same molecule?
Its IC50 is 0.842 ± 0.066 nM.

What about the IC50 (HIV-1 LAI Q66R) of the same molecule?
Its IC50 is 0.496 ± 0.168 nM.

What about the IC50 [1] of the same molecule?
The IC50 was 0.838 ± 0.031 nM.

What about the IC50 (HIV-1 NL4-3 (D36G) V38A) of the same molecule?
Its IC50 is 0.647 ± 0.024 nM.

What about the IC50 (HIV-1 NL4-3 (WT)) of the same molecule?
Its IC50 is 0.699 ± 0.025 nM.

What about the IC50 [2] of the same molecule?
The IC50 was 3.14 ± 0.4 nM.

And the IC50 (HIV-1IIIB (X4 virus))?
Its IC50 is 2.4 nM.

What about the IC50 [3] of the same molecule?
The IC50 was 1.54 ± 0.253 nM.

And the IC50 [4]?
Its IC50 is 4.94 ± 1.1 nM.

And the IC50 [5]?
Its IC50 is 1.14 nM.

And the IC50 (HIV-1 LAI K90E)?
The IC50 was 1.42 ± 0.242 nM.

What about the IC50 (HIV-1 LAI K154Q) of the same molecule?
Its IC50 is 1.25 ± 0.249 nM.

And the IC50 [6]?
The IC50 was 0.748 ± 0.012 nM.

What about the IC50 [7] of the same molecule?
The IC50 was 0.941 ± 0.019 nM.

And the IC50 (HIV-1 NL4-3 D36G (WT))?
Its IC50 is 0.912 ± 0.029 nM.

And the IC50 (HIV-1 LAI (WT))?
The IC50 was 0.932 ± 0.059 nM.

— PMC6470885 (Molecules, 2019)
